According to patent US7994209B2, “3-phenoxymethylpyrrolidine compounds” (Theravance, Inc., priority 2009, dated 2011):

Tests used:
[1] = biological target: hNET (Homo sapiens, UniProt P23975); assay: hNET membrane radioligand binding assay (3H-nisoxetine), Assay 1
[2] = biological target: hSERT (Homo sapiens, UniProt P31645); assay: hSERT membrane radioligand binding assay (3H-citalopram), Assay 1; details: SERT pKi, hSERT HEK-293 membranes, 1.0 nM 3H-citalopram; values given as lower bounds
hSERT, sequence (P31645 whole entry): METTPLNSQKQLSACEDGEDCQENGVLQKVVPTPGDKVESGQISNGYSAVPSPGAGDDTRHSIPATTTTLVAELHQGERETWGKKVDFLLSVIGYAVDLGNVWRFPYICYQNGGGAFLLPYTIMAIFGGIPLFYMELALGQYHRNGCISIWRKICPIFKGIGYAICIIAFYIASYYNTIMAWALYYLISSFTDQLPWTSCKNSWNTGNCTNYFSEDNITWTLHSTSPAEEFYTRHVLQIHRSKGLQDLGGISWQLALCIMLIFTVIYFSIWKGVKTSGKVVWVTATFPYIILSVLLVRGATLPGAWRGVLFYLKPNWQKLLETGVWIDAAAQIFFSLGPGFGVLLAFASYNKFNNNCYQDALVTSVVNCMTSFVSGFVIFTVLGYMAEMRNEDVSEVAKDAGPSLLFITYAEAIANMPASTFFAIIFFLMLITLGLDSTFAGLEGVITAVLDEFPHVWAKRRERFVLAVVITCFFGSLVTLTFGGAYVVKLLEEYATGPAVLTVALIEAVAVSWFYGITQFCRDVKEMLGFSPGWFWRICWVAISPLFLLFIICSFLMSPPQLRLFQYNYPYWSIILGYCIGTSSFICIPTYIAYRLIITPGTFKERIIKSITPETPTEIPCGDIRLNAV

hNET, sequence (P23975 whole entry): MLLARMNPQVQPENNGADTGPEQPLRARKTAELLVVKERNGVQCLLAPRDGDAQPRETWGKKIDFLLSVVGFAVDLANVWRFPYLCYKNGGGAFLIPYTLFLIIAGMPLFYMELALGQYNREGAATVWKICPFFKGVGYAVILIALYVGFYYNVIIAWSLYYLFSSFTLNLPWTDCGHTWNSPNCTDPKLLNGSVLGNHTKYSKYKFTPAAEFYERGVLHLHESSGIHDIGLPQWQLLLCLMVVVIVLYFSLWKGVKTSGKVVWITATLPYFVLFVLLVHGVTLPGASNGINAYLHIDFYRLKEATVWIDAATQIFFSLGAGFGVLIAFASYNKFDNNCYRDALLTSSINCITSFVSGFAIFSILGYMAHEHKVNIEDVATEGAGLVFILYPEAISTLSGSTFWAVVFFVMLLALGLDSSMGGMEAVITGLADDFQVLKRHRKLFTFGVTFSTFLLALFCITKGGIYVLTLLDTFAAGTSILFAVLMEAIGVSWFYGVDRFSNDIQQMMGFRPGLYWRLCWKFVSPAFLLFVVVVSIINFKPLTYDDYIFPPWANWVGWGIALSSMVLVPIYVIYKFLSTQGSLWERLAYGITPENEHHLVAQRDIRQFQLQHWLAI

Structure (SMILES) | Ki [1] [nM] | Ki [2] [nM]
CC(C)[C@@H](Oc1c(Cl)cccc1Cl)[C@H]1CCNC1 [Example 6-29, (S)-3-[(R)-1-(2,6-Dichlorophenoxy)-2-methylpropyl]pyrrolidine] | ≤ 100 | ≤ 100
Cc1cc(Cl)ccc1O[C@H](C(C)C)[C@H]1CCNC1 [Example 6-44, (S)-3-[(R)-1-(4-Chloro-2-methylphenoxy)-2-methylpropyl]pyrrolidine] | ≤ 100 | ≤ 10
CC(C)[C@@H](Oc1ccc(Cl)cc1C(F)(F)F)[C@H]1CCNC1 [Example 6-52, (S)-3-[(R)-1-(4-Chloro-2-trifluoromethylphenoxy)-2-methylpropyl]pyrrolidine] | ≤ 100 | ≤ 100
CC(C)[C@H](Oc1ccccc1[N+](=O)[O-])[C@H]1CCNC1 [Example 6-53, (S)-3-[(S)-2-Methyl-1-(2-nitrophenoxy)propyl]pyrrolidine] | ≤ 10 | ≤ 100
CC(C)[C@H](Oc1cccc(F)c1)[C@H]1CCNC1 [Example 6-54, (S)-3-[(S)-1-(3-Fluorophenoxy)-2-methylpropyl]pyrrolidine] | ≤ 10 | ≤ 100
CC(C)C(Oc1cccc(F)c1)C1CCNC1 (stereo not shown) [Example 6-55, 3-[1-(3-Fluorophenoxy)-2-methylpropyl]pyrrolidine] | ≤ 100 | ≤ 100
CC(C)C(Oc1cc(Cl)cc(Cl)c1)C1CCNC1 (stereo not shown) [Example 6-67, 3-[1(3,5-Dichlorophenoxy)-2-methylpropyl]pyrrolidine] | ≤ 100 | ≤ 10
CC(C)C(Oc1cccc(C(F)(F)F)c1)C1CCNC1 (stereo not shown) [Example 6-72, 3-[2-Methyl-1-(3-trifluoromethylphenoxy)-propyl]pyrrolidine] | ≤ 100 | ≤ 10
CC(C)C(Oc1ccc(F)cc1)C1CCNC1 (stereo not shown) [Example 6-73, 3-[1-(4-Fluorophenoxy)-2-methylpropyl]pyrrolidine] | ≤ 100 | ≤ 100
CC(C)[C@@H](Oc1ccc(Cl)cc1)[C@H]1CCNC1 [Example 6-76, (S)-3-[(R)-1-(4-Chlorophenoxy)-2-methylpropyl]pyrrolidine] | ≤ 100 | ≤ 10
CC(C)C(Oc1ccc(C(F)(F)F)cc1)C1CCNC1 (stereo not shown) [Example 6-77, 3-[2-Methyl-1-(4-trifluoromethylphenoxy)propyl]pyrrolidine] | ≤ 100 | ≤ 10
CCCC[C@@H](Oc1ccc(C(F)(F)F)cc1)[C@H]1CCNC1 [Example 8-5, (S)-3-[(R)-1-(4-Trifluoromethylphenoxy)pentyl]pyrrolidine] | ≤ 100 | ≤ 10
CCCC[C@@H](Oc1cccc(Cl)c1Cl)[C@H]1CCNC1 [Example 8-6, (S)-3-[(R)-1-(2,3-Dichlorophenoxy)pentyl]pyrrolidine] | ≤ 10 | ≤ 10
CCCC[C@@H](Oc1cccc(Cl)c1C)[C@H]1CCNC1 [Example 8-7, (S)-3-[(R)-1-(3-Chloro-2-methylphenoxy)pentyl]pyrrolidine] | ≤ 10 | ≤ 10
CCCC[C@@H](Oc1ccc(Cl)cc1Cl)[C@H]1CCNC1 [Example 8-8, (S)-3-[(R)-1-(2,4-Dichlorophenoxy)pentyl]pyrrolidine] | ≤ 10 | ≤ 10
CCCC[C@@H](Oc1ccc(C)cc1Cl)[C@H]1CCNC1 [Example 8-9, (S)-3-[(R)-1-(2-Chloro-4-methylphenoxy)pentyl]pyrrolidine] | ≤ 100 | ≤ 10
CCCC[C@@H](Oc1ccc(Cl)cc1C)[C@H]1CCNC1 [Example 8-10, (S)-3-[(R)-1-(4-Chloro-2-methylphenoxy)pentyl]pyrrolidine] | ≤ 10 | ≤ 10
CCCC[C@@H](Oc1ccc(Cl)cc1C(F)(F)F)[C@H]1CCNC1 [Example 8-11, (S)-3-[(R)-1-(4-Chloro-2-trifluoromethylphenoxy)pentyl]pyrrolidine] | ≤ 10 | ≤ 10
CC(C)CC(Oc1ccccc1F)C1CCNC1 (stereo not shown) [Example 10-2, 3-[1-(2-Fluorophenoxy)-3-methylbutyl]pyrrolidine] | ≤ 10 | ≤ 100
CC(C)CC(Oc1cccc(F)c1)C1CCNC1 (stereo not shown) [Example 10-6, 3-[1-(3-Fluorophenoxy)-3-methylbutyl]pyrrolidine] | ≤ 10 | ≤ 100
CC(C)C[C@H](Oc1ccc(Cl)cc1)[C@@H]1CCNC1 [Example 10-12, (R)-3-[(S)-1-(4-Chlorophenoxy)-3-methylbutyl]pyrrolidine] | ≤ 100 | ≤ 10
CC(C)C[C@@H](Oc1ccc(Cl)cc1)[C@@H]1CCNC1 [Example 10-14, (R)-3-[(R)-1-(4-Chlorophenoxy)-3-methylbutyl]pyrrolidine] | ≤ 100 | ≤ 10
CC(C)C[C@@H](Oc1ccc(C(F)(F)F)cc1)[C@H]1CCNC1 [Example 10-17, (S)-3-[(R)-3-Methyl-1-(4-trifluoromethylphenoxy)butyl]pyrrolidine] | ≤ 100 | ≤ 10
CC(C)C[C@H](Oc1cccc(Cl)c1C(F)(F)F)[C@@H]1CCNC1 [Example 10-37, (R)-3-[(S)-1-(3-Chloro-2-trifluoromethylphenoxy)-3-methylbutyl]pyrrolidine] | ≤ 100 | ≤ 10
CC(=O)c1c(F)cccc1O[C@@H](CC(C)C)[C@H]1CCNC1 [Example 10-38, 1-[2-Fluoro-6-((S)-3-methyl-1-(S)-pyrrolidin-3-yl-butoxy)phenyl]ethanone] | ≤ 10 | ≤ 100
CC(C)C[C@H](Oc1ccc(Cl)cc1Cl)[C@@H]1CCNC1 [Example 10-43, (R)-3-[(S)-1-(2,4-Dichlorophenoxy)-3-methylbutyl]pyrrolidine] | ≤ 100 | ≤ 10
Cc1cc(Cl)ccc1O[C@@H](CC(C)C)[C@@H]1CCNC1 [Example 10-46, (R)-3-[(S)-1-(4-Chloro-2-methylphenoxy)-3-methylbutyl]pyrrolidine] | ≤ 100 | ≤ 10

Now from value to molecule:

Ki [1] [nM] | Ki [2] [nM] | Structure (SMILES)
≤ 10 | ≤ 100 | CSc1ccccc1O[C@H](C1CC1)[C@H]1CCNC1 [Example 16-4, (S)-3-[(R)cyclopropyl-(2-methylsulfanylphenoxy)methyl]pyrrolidine]
≤ 10 | ≤ 100 | CSc1ccccc1O[C@@H](C1CC1)[C@H]1CCNC1 [Example 16-5, (S)-3-[(S)cyclopropyl-(2-methylsulfanylphenoxy)methyl]pyrrolidine]
≤ 100 | ≤ 10 | Clc1cccc(O[C@@H](C2CC2)[C@@H]2CCNC2)c1Cl [Example 16-6, (R)-3-[(S)cyclopropyl-(2,3-dichlorophenoxy)methyl]pyrrolidine]
≤ 100 | ≤ 10 | FC(F)(F)c1c(Cl)cccc1O[C@H](C1CC1)[C@H]1CCNC1 [Example 16-17, (S)-3-[(R)-(3-Chloro-2-trifluoromethylphenoxy)cyclopropylmethyl]pyrrolidine]
≤ 10 | ≤ 100 | COc1c(Cl)cccc1O[C@@H](C1CC1)[C@H]1CCNC1 [Example 16-18, (S)-3-[(S)-(3-Chloro-2-methoxyphenoxy)cyclopropylmethyl]pyrrolidine]
≤ 100 | ≤ 10 | Clc1ccc(O[C@H](C2CC2)[C@H]2CCNC2)c(Cl)c1 [Example 16-20, (S)-3-[(R)cyclopropyl-(2,4-dichlorophenoxy)methyl]pyrrolidine]
≤ 100 | ≤ 10 | Clc1ccc(O[C@H](C2CC2)[C@@H]2CCNC2)c(Cl)c1 [Example 16-21, (R)-3-[(R)cyclopropyl-(2,4-dichlorophenoxy)methyl]pyrrolidine]
≤ 100 | ≤ 10 | Cc1ccc(O[C@H](C2CC2)[C@@H]2CCNC2)c(Cl)c1 [Example 16-24, (R)-3-[(R)-(2-Chloro-4-methylphenoxy)cyclopropylmethyl]pyrrolidine]
≤ 100 | ≤ 10 | Cc1ccc(O[C@H](C2CC2)[C@@H]2CCNC2)c(Br)c1 [Example 16-26, (R)-3-[(R)-(2-Bromo-4-methylphenoxy)cyclopropylmethyl]pyrrolidine]
≤ 100 | ≤ 10 | Cc1ccc(O[C@H](C2CC2)[C@@H]2CCNC2)c(C)c1 [Example 16-27, (R)-3-[(R)cyclopropyl-(2,4-dimethylphenoxy)-methyl]pyrrolidine]
≤ 100 | ≤ 10 | Cc1cc(Cl)ccc1O[C@H](C1CC1)[C@H]1CCNC1 [Example 16-30, (S)-3-[(R)-(4-Chloro-2-methylphenoxy)cyclopropylmethyl]pyrrolidine]
≤ 100 | ≤ 10 | Cc1cc(Cl)ccc1O[C@@H](C1CC1)[C@@H]1CCNC1 [Example 16-31, (R)-3-[(S)-(4-Chloro-2-methylphenoxy)cyclopropylmethyl]pyrrolidine]
≤ 100 | ≤ 10 | Cc1cc(Cl)ccc1O[C@H](C1CC1)[C@@H]1CCNC1 [Example 16-32, (R)-3-[(R)-(4-Chloro-2-methylphenoxy)cyclopropylmethyl]pyrrolidine]
≤ 10 | ≤ 10 | FC(F)(F)c1cc(Cl)ccc1O[C@@H](C1CC1)[C@H]1CCNC1 [Example 16-35, (S)-3-[(S)-(4-Chloro-2-trifluoromethylphenoxy)cyclopropylmethyl]pyrrolidine]
≤ 100 | ≤ 100 | FC(F)(F)c1cc(Cl)ccc1O[C@H](C1CC1)[C@@H]1CCNC1 [Example 16-36, (R)-3-[(R)-(4-Chloro-2-trifluoromethylphenoxy)cyclopropylmethyl]pyrrolidine]
≤ 100 | ≤ 10 | COc1cc(F)ccc1O[C@H](C1CC1)[C@H]1CCNC1 [Example 16-39, (S)-3-[(R)cyclopropyl-(4-fluoro-2-methoxyphenoxy)methyl]pyrrolidine]
≤ 10 | ≤ 100 | COc1cc(F)ccc1O[C@@H](C1CC1)[C@H]1CCNC1 [Example 16-40, (S)-3-[(S)cyclopropyl-(4-fluoro-2-methoxyphenoxy)methyl]pyrrolidine]
